Experiments:
[1] = UV-Vis detection of chromophore release on heating liposomes (DPPC, DSPE-PEG2000, SATA-DSPE, PDP-PE); type: physicochemical; settings: negative control without hydroxylamine, heated to 90° C.; FIG. 16
Experimental: To deprotect the thiol group on the liposomes 100 μL of 0.5 M hydroxylamine with 25 mM EDTA pH 7.3 in PBS buffer were added to 50 μL of PBS buffer containing the liposomes. The mixture was gently mixed over an hour. The procedure for deprotection was taken from Pierce.
50 μL of liposomes formed by the second method were diluted into 650 μL of PBS. UV-Vis spectra were taken of PBS as a blank, the liposomes in PBS, and hydroxylamine solution in PBS all at room temperature.
The liposomes were heated to 40 to 90° C. at 10 degree intervals for 10 minutes each, upon cooling to room temperature UV-Vis spectra was taken; the spectra are shown in FIG. 15.
As a negative control, the same procedure was performed on the same concentration of liposomes and PBS without the hydroxylamine solution. After heating the negative control to 90° C. DTT, which serves to cleave any disulfide bonds present, was added to visualize the amount of PDP-PE that is present in the liposomes, as shown in FIG. 16.

[2] = UV-Vis analysis of disulfide bond stability to heat and hydroxylamine; type: physicochemical; settings: with and without hydroxylamine solution; room temperature to 90° C., 15 minutes each; FIG. 18-19
Experimental: The solution was heated for 15 minutes at each temperature and allowed to cool to room temp before the spectra were taken. ˜1 mg of DTT was added to the solution to cleave the remaining disulfide bonds.

## CCCCCCCCCCCCCCCC(=O)OC[C@H](COP(=O)(O)OCCNC(=O)CCSSc1ccccn1)OC(=O)CCCCCCCCCCCCCCC [PDP-PE, N-[3-(2-Pyridyldithio)propionyl]-1,2-dipalmitoyl-sn-glycero-3-phosphoethanolamine]
[1]
  reduction of PDP-PE with only heat: does not seem to be reduced

## c1ccc(SSc2ccccn2)nc1 [2,2′ dithiodipyridine, 2,2′-dithiodipyridine]
[2]
  reduction of disulfide on heating: reduction is occurring

Reference: patent US20100068260A1, “Methods, Compositions and Device for Directed and Controlled Heating and Release of Agents” (priority 2007, published 2010)
